Results: patent EP4603105A1, “PHARMACEUTICAL COMPOSITION CONTAINING CYCLIC COMPOUND HAVING SELECTIVE KRAS INHIBITORY EFFECT AGAINST HRAS AND NRAS” (CHUGAI SEIYAKU KABUSHIKI KAISHA, priority 2022, dated 2024)
Where a SMILES comes first, the peptide text is derived from it. Bridges are numbered along the chain shown (N, C = ends). [ ]: non-standard residue; d: D form. The star is where a group is joined. hPhe(3-Cl-4-CF3) = N[C@@H](CCc1ccc(C(F)(F)F)c(Cl)c1)C(=O)O; NPrPhe(4-CF3) = CCCN[C@@H](Cc1ccc(C(F)(F)F)cc1)C(=O)O; NMeGly(cPent) = CN[C@H](C(=O)O)C1CCCC1; NMeD = CN[C@@H](CC(=O)O)C(=O)O; NMeL = CN[C@@H](CC(C)C)C(=O)O; hPip = O=C(O)[C@@H]1CCCCCN1; Morpholide = C1CN(*)CCO1; Ac5c = NC1(C(=O)O)CCCC1; Aze = O=C(O)[C@@H]1CCN1; Abu = CC[C@H](N)C(=O)O; Sar = CNCC(=O)O

Tests used:
[1] = target: GDP-bound KRAS wild-type protein (Homo sapiens, UniProt P01116); test: Binding to KRAS by surface plasmon resonance (SPR), dissociation constant KD
GDP-bound KRAS wild-type protein, sequence (P01116 1-188 isoform P01116-2): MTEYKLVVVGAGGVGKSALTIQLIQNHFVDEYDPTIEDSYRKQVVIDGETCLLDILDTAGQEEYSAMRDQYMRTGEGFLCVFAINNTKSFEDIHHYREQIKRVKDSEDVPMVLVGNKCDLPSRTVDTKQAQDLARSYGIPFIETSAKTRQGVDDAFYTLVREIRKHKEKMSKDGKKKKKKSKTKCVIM
Method in brief: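 Each cycle, GDP-bound biotin-Avi RAS was captured (~100–300 RU), compound concentrations were injected low to high for 75 s each at 100 µL/min, then the chip was regenerated. Buffer: HBS pH 7.4, 10 mM MgCl2, 10 µM GDP, 1 mM DTT, 4% DMSO; 30°C. KD from a 1:1 binding model.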

[2] = target: GDP-bound NRAS wild-type protein (Homo sapiens, UniProt P01111); test: Binding to NRAS by surface plasmon resonance (SPR), KD and KD ratio to KRAS
GDP-bound NRAS wild-type protein, sequence (P01111 whole entry): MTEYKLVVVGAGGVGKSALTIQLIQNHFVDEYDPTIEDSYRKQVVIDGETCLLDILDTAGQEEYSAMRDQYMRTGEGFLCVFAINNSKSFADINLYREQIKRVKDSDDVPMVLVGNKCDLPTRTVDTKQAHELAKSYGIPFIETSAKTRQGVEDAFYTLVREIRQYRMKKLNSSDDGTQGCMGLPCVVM
Method in brief: (§1)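 Measured at 30°C: SPR with GDP-loaded, E. coli-expressed biotin-Avi RAS captured (~100–300 RU), ascending 75 s compound injections, HBS pH 7.4 with GDP, MgCl2, 4% DMSO. KD from 1:1 fit.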

[3] = target: HRAS wild-type protein (Homo sapiens, UniProt P01112); test: Binding to HRAS by surface plasmon resonance (SPR), KD and KD ratio to KRAS
HRAS wild-type protein, sequence (P01112 whole entry): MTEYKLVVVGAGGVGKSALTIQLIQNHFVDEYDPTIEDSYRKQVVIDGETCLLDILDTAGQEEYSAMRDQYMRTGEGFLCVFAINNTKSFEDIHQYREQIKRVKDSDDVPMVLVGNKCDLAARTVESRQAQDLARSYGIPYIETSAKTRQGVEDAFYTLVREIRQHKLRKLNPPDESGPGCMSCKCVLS
Method in brief: as §1

[4] = system: human lung cancer strain NCI-H441; assay type: cell-based
Method in brief: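 Signal came from […] measured per well once the reagent was added. Beforehand, cells were cultured at 37°C and 5% carbon dioxide on a compound series serially diluted in dimethyl sulfoxide.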

[5] = Single Cycle Kinetics, 1:1 binding model
[6] = ratio of the KD value with respect to GDP-bound NRAS wild-type protein to the KD value with respect to KRAS
[7] = ratio of the KD value with respect to HRAS wild-type protein to the KD value with respect to KRAS
[8] = ratio of KD value for GDP-bound NRAS wild-type protein to KD value for KRAS (SPR)
[9] = ratio of KD value for HRAS wild-type protein to KD value for KRAS (SPR)
[10] = ratio of KD for GDP-bound NRAS wild-type protein to KD for KRAS
[11] = ratio of KD for HRAS wild-type protein to KD for KRAS

SMILES	Kd [1, 5] [nM]	IC50 [4] [nM]	Kd ([1]; 1:1 binding model) [nM]	Kd ([1]; Single Cycle Kinetics) [nM]	NRAS /KRAS [2, 6]	HRAS /KRAS [3, 7]	NRAS /KRAS [2, 8]	HRAS /KRAS [3, 9]	NRAS /KRAS [2, 10]	HRAS /KRAS [3, 11]
CC[C@H](C)[C@@H]1NC(=O)[C@H](CC2CCCC2)N(C)C(=O)C[C@@H](C(=O)N(C)C)N(C)C(=O)[C@H](C2CCCC2)N(C)C(=O)C2(CCC2)NC(=O)[C@@H]2C[C@@H](C(F)(F)F)CN2C(=O)[C@H](CCc2cc(F)c(C(F)(F)F)c(F)c2)NC(=O)CN(C)C(=O)[C@H](Cc2ccc(F)cc2)N2CC/C=C\C[C@@H](C2=O)N(C)C(=O)CN(C)C1=O [PP1508]	0.15	28.1	–	–	–	–	A (a compound having 10 or more and less than 20 is denoted as A)	A (a compound having 10 or more and less than 20 is denoted as A)	–	–
CCCN1C(=O)CN(C)C(=O)[C@@H]2CCN2C(=O)[C@H]([C@@H](C)CC)NC(=O)[C@@H]2CCCCCN2C(=O)C[C@@H](C(=O)N2CCOCC2)N(C)C(=O)[C@H](C2CCCC2)N(C)C(=O)C2(CCCC2)NC(=O)[C@@H]2CCCN2C(=O)[C@H](CCc2ccc(C(F)(F)F)c(Cl)c2)NC(=O)CN(C)C(=O)[C@@H]1Cc1ccc(C(F)(F)F)cc1 [PP0302] ([hPip]I[Aze][Sar][NPrPhe(4-CF3)][Sar][hPhe(3-Cl-4-CF3)]P[Ac5c][NMeGly(cPent)][NMeD]-Morpholide; lactam N-11)	–	126	1.6	–	–	–	–	–	B (a compound having 3 or more and less than 10 is denoted as B)	C (A compound having a KD ratio of 0.1 or more and less than 3 is denoted as C)
CCCN1C(=O)CN(C)C(=O)[C@@H]2CCN2C(=O)[C@H](CC)NC(=O)[C@H](CC(C)C)N(C)C(=O)C[C@@H](C(=O)N2CCOCC2)N(C)C(=O)[C@H](C2CCCC2)N(C)C(=O)C2(CCCC2)NC(=O)[C@@H]2CCCN2C(=O)[C@H](CCc2ccc(C(F)(F)F)c(Cl)c2)NC(=O)CN(C)C(=O)[C@@H]1Cc1ccc(C(F)(F)F)cc1 [PP0303] ([NMeL][Abu][Aze][Sar][NPrPhe(4-CF3)][Sar][hPhe(3-Cl-4-CF3)]P[Ac5c][NMeGly(cPent)][NMeD]-Morpholide; lactam N-11)	–	349	4	–	–	–	–	–	B (a compound having 3 or more and less than 10 is denoted as B)	B (a compound having 3 or more and less than 10 is denoted as B)
CCC[C@@H]1C[C@H]2C(=O)NC3(CCCC3)C(=O)N(C)[C@@H](C3CCCC3)C(=O)N(C)[C@H](C(=O)N(C)C)CC(=O)N(C)[C@@H](CC(C)C)C(=O)N[C@@H]([C@@H](C)CC)C(=O)N(C)CC(=O)N(C)[C@H]3C/C=C\CCN(C3=O)[C@@H](Cc3ccc(C)cc3)C(=O)N(C)CC(=O)N[C@@H](CCc3cc(F)c(C(F)(F)F)c(F)c3)C(=O)N2C1 [PP2193]	0.41	33.1	–	–	A (a compound having 10 or more and less than 20 is denoted as A)	A (a compound having 10 or more and less than 20 is denoted as A)	–	–	–	–
CCCN(C)C(=O)[C@@H]1CC(=O)N(C)[C@@H](COCC)C(=O)N[C@@H]([C@@H](C)CC)C(=O)N(C)CC(=O)N(C)[C@H]2C/C=C\CCN(C2=O)[C@@H](Cc2ccc(C(F)(F)F)cc2)C(=O)N(C)CC(=O)N[C@@H](CCc2ccc(C(F)(F)F)c(OC)c2)C(=O)N2C[C@@H](C)C[C@H]2C(=O)NC2(CCC2)C(=O)N(C)[C@@H](C2CCCC2)C(=O)N1C [PP2025]	0.061	13.4	–	–	A (a compound having 10 or more and less than 20 is denoted as A)	B (a compound having 3 or more and less than 10 is denoted as B)	–	–	–	–
CCO[C@@H]1C[C@H]2C(=O)NC3(CCC3)C(=O)N(C)[C@@H](C3CCCC3)C(=O)N(C)[C@H](C(=O)N3CCOCC3)CC(=O)N(C)[C@@H](CC(C)C)C(=O)N[C@@H]([C@H](C)CC)C(=O)N(C)CC(=O)N(C)[C@H]3CCCCCN(C3=O)[C@@H](Cc3ccc(C(F)(F)F)cc3)C(=O)N(C)CC(=O)N[C@@H](CCc3cc(F)c(C(F)(F)F)c(F)c3)C(=O)N2C1 [PP0815]	–	345	–	3.9	–	–	–	–	B (a compound having 3 or more and less than 10 is denoted as B)	B (a compound having 3 or more and less than 10 is denoted as B)
CCCC[C@H]1C(=O)N[C@@H]([C@@H](C)CC)C(=O)N(C)CC(=O)N(C)[C@H]2C/C=C\CCN(C2=O)[C@@H](Cc2ccc(C(F)(F)F)cc2)C(=O)N(C)CC(=O)N[C@@H](CCc2cc(F)c(C(F)(F)F)c(F)c2)C(=O)N2C[C@H](OCC)C[C@H]2C(=O)NC2(CC(F)(F)C2)C(=O)N(C)[C@@H](C2CCCC2)C(=O)N(C)[C@H](C(=O)N(C)C)CC(=O)N1C [PP1740]	0.053	3.6	–	–	–	–	A (a compound having 10 or more and less than 20 is denoted as A)	A (a compound having 10 or more and less than 20 is denoted as A)	–	–
CC[C@H](C)[C@@H]1NC(=O)[C@H](CC(C)C)N(C)C(=O)C[C@@H](C(=O)N2CCOCC2)N(C)C(=O)[C@H](C2CCCC2)N(C)C(=O)C2(CCC2)NC(=O)[C@@H]2[C@H](O)CCN2C(=O)[C@H](CCc2cc(F)c(C(F)(F)F)c(F)c2)NC(=O)CN(C)C(=O)[C@H](Cc2ccc(C(F)(F)F)cc2)N2CCCCC[C@@H](C2=O)N(C)C(=O)CN(C)C1=O [PP0873]	–	896	–	0.86	–	–	–	–	A (a compound having 10 or more and less than 20 is denoted as A)	B (a compound having 3 or more and less than 10 is denoted as B)

The next lines start with results.

Kd [1, 5] [nM]	IC50 [4] [nM]	Kd ([1]; 1:1 binding model) [nM]	Kd ([1]; Single Cycle Kinetics) [nM]	SMILES	NRAS /KRAS [2, 6]	HRAS /KRAS [3, 7]	NRAS /KRAS [2, 8]	HRAS /KRAS [3, 9]	NRAS /KRAS [2, 10]	HRAS /KRAS [3, 11]
0.23	50.8	–	–	CCC[C@H]1C(=O)N[C@@H]([C@@H](C)CC)C(=O)N(C)CC(=O)N(C)[C@H]2C/C=C\CCN(C2=O)[C@@H](Cc2ccc(C)cc2)C(=O)N(C)CC(=O)N[C@@H](CCc2cc(F)c(C(F)(F)F)c(F)c2)C(=O)N2C[C@H](CC)C[C@H]2C(=O)NC2(CCCC2)C(=O)N(C)[C@@H](C2CCCC2)C(=O)N(C)[C@H](C(=O)N(C)C)CC(=O)N1C [PP2216]	A (a compound having 10 or more and less than 20 is denoted as A)	A (a compound having 10 or more and less than 20 is denoted as A)	–	–	–	–
–	62.4	0.94	–	CCC(CC)[C@H]1C(=O)N(C)[C@H](C(=O)N(C)C)CC(=O)N(C)[C@@H](COC)C(=O)N[C@@H]([C@@H](C)CC)C(=O)N(C)CC(=O)N(C)[C@H]2C/C=C\CCN(C2=O)[C@@H](Cc2ccc(C)cc2)C(=O)N(C)CC(=O)N[C@@H](CCc2ccc(Cl)c(Cl)c2)C(=O)N2CC3(CC3)C[C@H]2C(=O)N(C)C2(CC(C)(C)C2)C(=O)N1C [PP2820]	–	–	–	–	AA (a compound having 20 or more is denoted as AA)	A (a compound having 10 or more and less than 20 is denoted as A)
–	22.8	0.39	–	CCC(CC)[C@H]1C(=O)N(C)[C@H](C(=O)N(C)C)CC(=O)N(C)[C@@H](COC)C(=O)N[C@@H]([C@@H](C)CC)C(=O)N(C)CC(=O)N(C)[C@H]2C/C=C\CCN(C2=O)[C@@H](Cc2ccc(C)cc2)C(=O)N(C)CC(=O)N[C@@H](CCc2ccc(Cl)c(Cl)c2)C(=O)N2C[C@H](OC3CCC3)C[C@H]2C(=O)N(C)C2(CC(C)(C)C2)C(=O)N1C [PP2816]	–	–	–	–	AA (a compound having 20 or more is denoted as AA)	A (a compound having 10 or more and less than 20 is denoted as A)
–	8.1	0.29	–	CCC[C@H]1C(=O)N[C@@H](C2CCCC2)C(=O)N(C)CC(=O)N(C)[C@H]2C/C=C\CCN(C2=O)[C@@H](Cc2ccc(C)cc2)C(=O)N(C)CC(=O)N[C@@H](CCc2cc(F)c(C(F)(F)F)c(F)c2)C(=O)N2C[C@H](OCC)C[C@H]2C(=O)NC2(CC(C)(C)C2)C(=O)N(C)[C@@H](C2CCCC2)C(=O)N(C)[C@H](C(=O)N(C)C)CC(=O)N1C [PP2988]	–	–	–	–	B (a compound having 3 or more and less than 10 is denoted as B)	B (a compound having 3 or more and less than 10 is denoted as B)
–	63.4	1.3	–	CCC[C@H]1C(=O)N[C@@H]([C@@H](C)CC)C(=O)N(C)CC(=O)N(C)[C@H]2C/C=C\CCN(C2=O)[C@@H](Cc2ccc(C)cc2)C(=O)N(C)CC(=O)N[C@@H](CCc2ccc(C(F)(F)F)c(OC)c2)C(=O)N2C[C@H](OCC)C[C@H]2C(=O)NC2(CC(C)(C)C2)C(=O)N(C)[C@@H](CC(F)(F)F)C(=O)N(C)[C@H](C(=O)N(C)C)CC(=O)N1C [PP3007]	–	–	–	–	A (a compound having 10 or more and less than 20 is denoted as A)	A (a compound having 10 or more and less than 20 is denoted as A)
0.4	8.2	–	–	CCC[C@H]1C(=O)N[C@@H]([C@@H](C)CC)C(=O)N(C2CC2)CC(=O)N(C)[C@H]2C/C=C\CCN(C2=O)[C@@H](Cc2ccc(C)cc2)C(=O)N(C)CC(=O)N[C@@H](CCc2ccc(C(F)(F)F)c(OC)c2)C(=O)N2C[C@H](OCC)C[C@H]2C(=O)N(C)C2(CCC2)C(=O)N(C)[C@@H](C(CC)CC)C(=O)N(C)[C@H](C(=O)N(C)C)CC(=O)N1C [PP2325]	A (a compound having 10 or more and less than 20 is denoted as A)	A (a compound having 10 or more and less than 20 is denoted as A)	–	–	–	–
–	29.9	0.69	–	CCO[C@@H]1C[C@H]2C(=O)NC3(CC(C)(C)C3)C(=O)N(C)[C@@H](C3CCCC3)C(=O)N(C)[C@H](C(=O)N(C)CC)CC(=O)N(C)[C@@H](CC(C)C)C(=O)N[C@@H]([C@@H](C)CC)C(=O)N(C)CC(=O)N(C)[C@H]3C/C=C\CCN(C3=O)[C@@H](Cc3ccc(C(F)F)cc3)C(=O)N(C)CC(=O)N[C@@H](CCc3cc(C)c(C(F)F)c(F)c3)C(=O)N2C1 [PP3145]	–	–	–	–	A (a compound having 10 or more and less than 20 is denoted as A)	A (a compound having 10 or more and less than 20 is denoted as A)
